Test results taken from ChEMBL document CHEMBL3132857, “Design, synthesis and biological evaluation of novel indano- and thiaindano-pyrazoles with potential interest for Alzheimer's disease” (Medchemcomm, 2013).
pIC50, pKi: −log10 of the molar value.

Experiments:
[1] = biological target: Butyrylcholinesterase (Equus caballus) (UniProt Q9N1N9); assay: Inhibition of horse serum BuChE at 10 uM using butyrylthiocholine chloride by spectrophotometry
Acetylcholinesterase [2] = biological target: T1, Acetylcholinesterase (Electrophorus electricus, UniProt O42275); assay: Non-competitive inhibition of electric eel AChE using acetylthiocholine chloride by Lineweaver-Burk plot method and Ellman's method based spectrophotometry
Acetylcholinesterase [3] = biological target: T2, Acetylcholinesterase (Homo sapiens, UniProt P22303); assay: Inhibition of human erythrocyte AChE using acetylthiocholine chloride by spectrophotometry
Acetylcholinesterase [4] = biological target: T1, Acetylcholinesterase; assay: Inhibition of electric eel AChE using acetylthiocholine chloride by spectrophotometry
Acetylcholinesterase [5] = biological target: T2, Acetylcholinesterase; assay: Inhibition of human erythrocyte AChE at 10 uM using acetylthiocholine chloride by spectrophotometry
[6] = biological target: Acetylcholinesterase (Electrophorus electricus) (UniProt O42275); assay: Inhibition of electric eel AChE at 10 uM using acetylthiocholine chloride by spectrophotometry
Acetylcholinesterase [7] = biological target: T1, Acetylcholinesterase; assay: Reversible mixed type inhibition of electric eel AChE using acetylthiocholine chloride by Lineweaver-Burk plot method and Ellman's method based spectrophotometry
Butyrylcholinesterase = Butyrylcholinesterase (Equus caballus, UniProt Q9N1N9); assay: Inhibition of horse serum BuChE using butyrylthiocholine chloride by spectrophotometry

Compound | pIC50 (Acetylcholinesterase [3]) | pIC50 (Acetylcholinesterase [4]) | inhibition (Acetylcholinesterase [5]) | further results
Cn1ncc2c1-c1c(Br)sc(Br)c1C2NC(=O)CN1CCN(Cc2ccccc2F)CC1 (stereo not drawn) | 6.06 | 6.62 |  | inhibition [1]: 30%; pKi (Acetylcholinesterase [2]): 6.37
COc1cc2c(cc1OC)C(NC(=O)CN1CCN(Cc3ccccc3)CC1)c1cn[nH]c1-2 (stereo not drawn) |  | 5.53 | 49% | 
O=C(CN1CCN(Cc2ccccc2)CC1)NC1c2ccsc2-c2c1cnn2-c1ccccc1 (stereo not drawn) |  |  | 36% | inhibition [6]: 31%
O=C(CN1CCN(Cc2ccccc2F)CC1)NC1c2ccsc2-c2c1cnn2-c1ccccc1 (stereo not drawn) |  | 5.39 | 42% | 
COc1cc2c(cc1OC)C(NC(=O)CN1CCN(Cc3ccccc3F)CC1)c1cn[nH]c1-2 (stereo not drawn) |  | 5.40 | 50% | 
O=C(CN1CCN(Cc2ccccc2F)CC1)NC1c2cnn(-c3ccccc3)c2-c2c(Br)sc(Br)c21 (stereo not drawn) |  |  | 15% | inhibition [6]: 27%
O=C(CN1CCN(Cc2ccccc2)CC1)NC1c2cnn(-c3ccccc3)c2-c2c(Br)sc(Br)c21 (stereo not drawn) | 6.06 | 6.54 |  | inhibition [1]: 37%
O=C(CN1CCN(Cc2ccccc2)CC1)NC1c2cn[nH]c2-c2sccc21 (stereo not drawn) | 5.04 |  |  | inhibition [6]: 49%
Cn1ncc2c1-c1sccc1C2NC(=O)CN1CCN(Cc2ccccc2)CC1 (stereo not drawn) | 6.03 | 5.72 |  | 
O=C(CN1CCN(Cc2ccccc2F)CC1)NC1c2cn[nH]c2-c2sccc21 (stereo not drawn) |  | 5.34 | 42% | 
Cn1ncc2c1-c1sccc1C2NC(=O)CN1CCN(Cc2ccccc2F)CC1 (stereo not drawn) | 5.88 | 5.88 |  | 
Cn1ncc2c1-c1c(Br)sc(Br)c1C2NC(=O)CN1CCN(Cc2ccccc2)CC1 (stereo not drawn) | 6.48 | 7.00 |  | pKi (Acetylcholinesterase [7]): 6.63; pIC50 (Butyrylcholinesterase): 5.11
COc1cc2c(cc1OC)C(NC(=O)CN1CCN(Cc3ccccc3F)CC1)c1cnn(C)c1-2 (stereo not drawn) | 5.61 | 6.14 |  | inhibition [1]: 1%
O=C(CN1CCN(Cc2ccccc2)CC1)NC1c2cn[nH]c2-c2c(Br)sc(Br)c21 (stereo not drawn) | 5.95 | 5.05 |  | 
COc1cc2c(cc1OC)C(NC(=O)CN1CCN(Cc3ccccc3F)CC1)c1cnn(-c3ccccc3)c1-2 (stereo not drawn) | 5.61 | 6.68 |  | inhibition [1]: 8%
COc1cc2c(cc1OC)C(NC(=O)CN1CCN(Cc3ccccc3)CC1)c1cnn(C)c1-2 (stereo not drawn) | 5.74 | 5.89 |  | 
COc1cc2c(cc1OC)C(NC(=O)CN1CCN(Cc3ccccc3)CC1)c1cnn(-c3ccccc3)c1-2 (stereo not drawn) | 5.52 | 5.87 |  | 
O=C(CN1CCN(Cc2ccccc2F)CC1)NC1c2cn[nH]c2-c2c(Br)sc(Br)c21 (stereo not drawn) |  | 5.34 | 42% | 
